The text below walks through data of patent publication US11214803B2, “Modulators of YAP1 expression” (Ionis Pharmaceuticals, Inc., priority 2019, dated 2022).

Strand notation (5' to 3'): a small letter for the sugar, then the base; units joined by * are phosphorothioate-linked, units joined directly phosphodiester-linked; [ ] holds rarer units or linkages, { } end groups; capitals alone tell only the bases. k = constrained ethyl (cEt); [5mC] = 5-methylcytosine; d = 2'-deoxy (DNA)

For one series, the system named is Yap1 mRNA. Nature of the series: Antisense inhibition of human Yap1 in A-431 cells by cEt gapmers, single dose (Example 3, RTS36584). As to conditions: Table 8; A-431 cells, 5,000 cells per well, free uptake, 2,000 nM, approximately 48 hours; RTS36584; normalized to RIBOGREEN; Yap1 mRNA relative to untreated control cells. The format is cell-based. In outline: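 Read-out is Yap1 mRNA as percent of untreated control, by quantitative RT-PCR normalized to total RNA (RiboGreen). Cells (A-431) received 2,000 nM of 3-10-3 cEt phosphorothioate gapmer via free uptake for roughly 48 hours.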
As to “958381 (antisense kT*k[5mC]*k[5mC]*dT*d[5mC]*dT*dG*d[5mC]*dG*d[5mC]*dG*d[5mC]*d[5mC]*k[5mC]*kG*k[5mC]) [Compound 958381]”, the “YAP1 (% UTC)” value worked out at 146 % UTC.

For the substance “958405 (antisense kT*kT*kA*dT*dG*dG*dG*dA*dT*dG*dA*dG*dT*kG*k[5mC]*kT) [Compound 958405]”, the “YAP1 (% UTC)” value was 24 % UTC.

With “958413 (antisense k[5mC]*kT*kA*dG*dT*dA*dA*dT*d[5mC]*dT*dT*dA*d[5mC]*kT*kG*kG) [Compound 958413]”, the “YAP1 (% UTC)” value was 80 % UTC.

“958357 (antisense k[5mC]*kG*kG*d[5mC]*dT*dT*dG*dA*dA*dG*dA*dA*dG*kG*kA*kG) [Compound 958357]”: the “YAP1 (% UTC)” value worked out at 12 % UTC.

The same series, now with this note: Table 9; A-431 cells, 5,000 cells per well, free uptake, 2,000 nM, approximately 48 hours; RTS36584; normalized to RIBOGREEN; Yap1 mRNA relative to untreated control cells.
Regarding “958776 (antisense kG*kG*kT*dA*d[5mC]*dT*d[5mC]*dT*d[5mC]*d[5mC]*dT*dT*d[5mC]*kA*kG*kA) [Compound 958776]”, the “YAP1 (% UTC)” value is 94 % UTC.

Consider “958516 (k[5mC]*kT*kG*d[5mC]*dA*dG*dA*d[5mC]*dT*dG*d[5mC]*d[5mC]*d[5mC]*k[5mC]*kA*kA; antisense) [Compound 958516]”, for which the “YAP1 (% UTC)” value is on record as 38 % UTC.

Take “958461 (antisense kG*k[5mC]*k[5mC]*dG*dA*dA*dG*d[5mC]*dA*dG*dT*dT*d[5mC]*kT*kT*kG) [Compound 958461]”: the “YAP1 (% UTC)” value came out at 79 % UTC.

With “958681 (kA*kA*kT*dT*dA*dA*d[5mC]*dA*d[5mC]*d[5mC]*dT*dG*dA*kG*k[5mC]*kT; antisense) [Compound 958681]”, the “YAP1 (% UTC)” value was 84 % UTC.

Still in this series, the particulars now being: Table 10; A-431 cells, 5,000 cells per well, free uptake, 2,000 nM oligonucleotide, approx. 48 hours; primer probe set RTS36584; Yap1 mRNA normalized to RIBOGREEN, percent of untreated control.
As for “958752 (antisense kG*kA*kA*dT*dT*dT*dT*dT*dA*dG*dT*d[5mC]*d[5mC]*kA*kG*kT) [Compound 958752]”, the “YAP1 (% UTC)” value is recorded as 2 % UTC.

With “958582 (kA*kA*kT*d[5mC]*dT*dG*d[5mC]*dT*dG*dA*dT*dA*dT*kA*kT*kA; antisense) [Compound 958582]”, the “YAP1 (% UTC)” value worked out at 21 % UTC.

On to “958707 (antisense kT*k[5mC]*kA*dA*dT*dG*d[5mC]*dT*dG*dT*dA*dT*d[5mC]*kA*kG*kA) [Compound 958707]”, for which the “YAP1 (% UTC)” value is listed as 23 % UTC.

With “958797 (antisense kA*k[5mC]*kG*dA*dG*d[5mC]*dA*d[5mC]*dA*dG*d[5mC]*dA*d[5mC]*k[5mC]*k[5mC]*kT) [Compound 958797]”, the “YAP1 (% UTC)” value is reported as 13 % UTC.

Consider “958622 (antisense kG*kA*kT*dA*dT*dT*d[5mC]*d[5mC]*dG*d[5mC]*dA*dT*dT*kG*k[5mC]*k[5mC]) [Compound 958622]”, for which the “YAP1 (% UTC)” value was found to be 3 % UTC.

Regarding “958702 (antisense kT*kG*kA*dT*dG*dT*d[5mC]*dT*dT*dG*dT*d[5mC]*d[5mC]*kA*kG*kA) [Compound 958702]”, the “YAP1 (% UTC)” value is given as 16 % UTC.

Still in this series, the particulars now being: Table 11; A-431 cells, 5,000 cells per well, free uptake, 2,000 nM oligonucleotide, approx. 48 hours; primer probe set RTS36584; Yap1 mRNA normalized to RIBOGREEN, percent of untreated control.
In the case of “958593 (kG*kG*kT*d[5mC]*dA*dG*dT*dA*d[5mC]*dA*dG*dA*dG*kG*kG*k[5mC]; antisense) [Compound 958593]”, the “YAP1 (% UTC)” value was found to be 7 % UTC.

Consider “958443 (antisense k[5mC]*kT*k[5mC]*d[5mC]*dA*d[5mC]*dG*dG*dG*d[5mC]*d[5mC]*dG*dA*kG*kG*kT) [Compound 958443]”, for which the “YAP1 (% UTC)” value is given as 90 % UTC.

Consider “958468 (antisense kT*kT*kG*dG*dT*dG*dG*d[5mC]*dA*dG*d[5mC]*d[5mC]*dA*kA*kA*kA) [Compound 958468]”, for which the “YAP1 (% UTC)” value was 86 % UTC.

Staying with this series, now noted: Table 12; A-431 cells, 5,000 cells per well, free uptake, 2,000 nM modified oligonucleotide, approx. 48 hours; RTS36584; normalized to RIBOGREEN; Yap1 mRNA relative to untreated control cells.
Regarding “958634 (antisense kT*k[5mC]*k[5mC]*dT*dT*dA*dA*d[5mC]*d[5mC]*d[5mC]*dG*dG*dG*kT*kT*kT) [Compound 958634]”, the “YAP1 (% UTC)” value came out at 61 % UTC.

With “958509 (kA*kT*kG*dT*dT*dA*dT*dG*dT*dT*dT*dG*dG*kG*kT*kG; antisense) [Compound 958509]”, the “YAP1 (% UTC)” value is on record as 4 % UTC.

The same series, now with this note: Table 13; A-431 cells, 5,000 cells per well, free uptake, 2,000 nM modified oligonucleotide, approx. 48 hours; RTS36584; normalized to RIBOGREEN; Yap1 mRNA relative to untreated control cells.
Turning to “958510 (kT*kA*k[5mC]*d[5mC]*dA*d[5mC]*dA*d[5mC]*dT*dA*dT*dT*dA*kT*kA*kA; antisense) [Compound 958510]”, the “YAP1 (% UTC)” value was 43 % UTC.

In the case of “958730 (antisense k[5mC]*kT*k[5mC]*dT*dG*dT*d[5mC]*dA*dG*dT*dT*dA*dT*k[5mC]*k[5mC]*kT) [Compound 958730]”, the “YAP1 (% UTC)” value is listed as 4 % UTC.

Consider “958680 (kA*kT*kT*dA*dA*d[5mC]*dA*d[5mC]*d[5mC]*dT*dG*dA*dG*k[5mC]*kT*kG; antisense) [Compound 958680]”, for which the “YAP1 (% UTC)” value was 50 % UTC.

Still in this series, the particulars now being: Table 26; Yap1 mRNA by 3-10-3 cEt gapmers targeting SEQ ID NO.: 1, and 2; percent of untreated control.
For “1075180 (kT*kA*kT*dT*dA*d[5mC]*dT*dA*d[5mC]*dA*dA*d[5mC]*d[5mC]*kA*kT*kA; antisense) [compound 1075180]”, the “YAP1 (% UTC)” value was 56 % UTC.

“1076428 (kA*kT*kT*dA*dA*dA*dA*dA*dG*dA*dA*dG*d[5mC]*kA*k[5mC]*kG; antisense) [compound 1076428]”: the “YAP1 (% UTC)” value is reported as 53 % UTC.

Still in this series, the particulars now being: Table 27; Yap1 mRNA by 3-10-3 cEt gapmers targeting SEQ ID NO.: 1, and 2; percent of untreated control.
Regarding “1075213 (kA*k[5mC]*kA*dA*dT*dA*dA*dA*dG*dG*dG*dT*d[5mC]*k[5mC]*kT*kA; antisense) [compound 1075213]”, the “YAP1 (% UTC)” value was determined as 33 % UTC.

With “1075533 (kG*kA*kT*dT*dA*d[5mC]*dT*d[5mC]*dA*dG*d[5mC]*dT*dA*kT*kG*kT; antisense) [compound 1075533]”, the “YAP1 (% UTC)” value is listed as 65 % UTC.

With “1074925 (antisense kG*k[5mC]*k[5mC]*dT*dG*d[5mC]*dA*dA*dA*dT*dA*dG*dG*kA*kG*kA) [compound 1074925]”, the “YAP1 (% UTC)” value turned out to be 94 % UTC.

For “1074317 (antisense kG*kA*kG*dA*dA*dT*dT*dT*dG*d[5mC]*dT*dG*dT*kG*k[5mC]*kT) [compound 1074317]”, the “YAP1 (% UTC)” value stood at 12 % UTC.

The same series, now with this note: Table 28; Yap1 mRNA as percent of untreated control; 3-10-3 cEt gapmers targeting SEQ ID NO.: 1, and 2.
As to “1074126 (k[5mC]*kT*kG*dG*d[5mC]*dG*dG*d[5mC]*dT*dG*d[5mC]*dG*d[5mC]*k[5mC]*kT*k[5mC]; antisense) [compound 1074126]”, the “YAP1 (% UTC)” value amounted to 111 % UTC.

Still in this series, the particulars now being: Table 29; Yap1 mRNA as percent of untreated control; 3-10-3 cEt gapmers targeting SEQ ID NO.: 1, and 2.
“1076271 (k[5mC]*kG*kG*d[5mC]*dA*dA*d[5mC]*dA*dA*d[5mC]*dA*dA*dA*kA*kT*kG; antisense) [compound 1076271]”: the “YAP1 (% UTC)” value is on record as 18 % UTC.

As for “1074735 (kG*kA*kT*d[5mC]*dA*dA*dA*dG*d[5mC]*dA*d[5mC]*dT*dG*kT*kG*k[5mC]; antisense) [compound 1074735]”, the “YAP1 (% UTC)” value is 117 % UTC.

The series is the same for the next values; noted with them: Table 34; Yap1 mRNA as percent of untreated control; 3-10-3 cEt gapmers targeting SEQ ID NO: 1 and 2; single dose.
As to “1074644 (antisense kA*kT*kT*dG*dA*dA*dG*dG*dG*d[5mC]*d[5mC]*dA*dA*kA*kA*kT) [compound 1074644]”, the “YAP1 (% UTC)” value amounted to 93 % UTC.

On to “1075380 (antisense kA*k[5mC]*kT*dA*dA*dA*dA*d[5mC]*dT*dG*dA*d[5mC]*dT*kG*kT*k[5mC]) [compound 1075380]”, for which the “YAP1 (% UTC)” value was found to be 94 % UTC.

The series is the same for the next values; noted with them: Table 35; Yap1 mRNA as percent of untreated control; 3-10-3 cEt gapmers targeting SEQ ID NO: 1 and 2; single dose.
In the case of “1076565 (k[5mC]*kA*kT*dT*dA*dA*dG*dT*d[5mC]*dA*d[5mC]*dA*dG*k[5mC]*kA*kT; antisense) [compound 1076565]”, the “YAP1 (% UTC)” value was 74 % UTC.

Consider “1075733 (k[5mC]*kA*kA*dT*dA*dA*d[5mC]*d[5mC]*dT*d[5mC]*dG*dA*dG*kT*kG*k[5mC]; antisense) [compound 1075733]”, for which the “YAP1 (% UTC)” value worked out at 28 % UTC.

Take “1076373 (antisense kA*kA*k[5mC]*dG*dG*dA*dT*dA*dT*dA*d[5mC]*dA*dA*kT*kA*kA) [compound 1076373]”: the “YAP1 (% UTC)” value was 10 % UTC.

Turning to “1076053 (kT*kA*k[5mC]*d[5mC]*dA*dA*d[5mC]*dA*dA*dG*dG*d[5mC]*dA*kT*k[5mC]*kA; antisense) [compound 1076053]”, the “YAP1 (% UTC)” value is given as 55 % UTC.
